Measured values taken from patent US7579343B2, “Pyrrolo-thiazines and processes for the preparation and use thereof” (Board of Trustees of Michigan State University, priority 2005, dated 2009).

Columns and labels:
β-ribosidase [1] = assay: β-ribosidase inhibition assay with DHF-riboside substrate, bacterial lysate; format: biochemical, Salmonella sp.35664; conditions: for threshold value for the inhibitor concentration over which no inhibition is observed: lysate of Salmonella sp.35664, DHF-riboside, over a 24 hour period
Method: (§1) The hydrolysis of β-riboside under catalysis by β-ribosidases features an oxocarbenium ion transition state, similar to nucleoside hydrolases, nucleoside phosphorylases and related enzymes. The β-ribosidase inhibitory properties of 6, 7 and 8 were evaluated using 3′,4′-dihydroxyflavone-4′-β-D-ribofuranoside 16 (DHF-riboside) as the substrate and bacterial lysates or whole cells as the source of β-ribosidase. The hydrolysis of this chromogenic substrate can be catalyzed by β-ribosidases to release 3′,4′-dihydroxyflavone, which forms a highly colored chelate with iron.^23
(§2) Compounds 6-8 were evaluated for their ability to inhibit the action of β-ribosidases produced by Gram negative bacteria. There are no commercially available β-ribosidases and it is the usual course to use intrinsic ribosidase activities from actual bacteria or bacterial cell lysates. Ribosidase inhibition assays were performed using Salmonella sp.35664 to produce β-ribosidase enzymes. Both whole cells and lysed bacteria were tested. Ribosidase activity is indicated by a purple color formed by complexation of the freed phenol with ferric ions. FIGS. 7A and 7B are (7A) absorbance of the assay mixture produced by a lysate of Salmonella sp.35664 with 3′,4′-dihydroxyflavone-4′-β-D-ribofuranoside in the presence of 6 in concentrations from 0 to 15 μg/μL over a 24 hour period. (7B) Absorbance of the assay mixture in the presence of 7. Note that the differences in inhibition between the two are marginal at higher inhibitor concentrations. Note also that in both cases there is a threshold value of 0.9 μg/μL for the inhibitor concentration over which no inhibition is observed. The more inhibition of the enzyme, the less cleavage of the substrate.
(§3) Inhibitory potency was determined by spectrophotometrically measuring the residual hydrolytic activities of the bacterial produced β-ribosidase 2. The bacterium used to produce β-ribosidase was Salmonella sp.35664, both whole cell and lysed strains. 3′,4′-Dihydroxyflavone-4′-β-D-ribofuranoside 15 (DHF-riboside) was used as substrate. The assay was performed in a PBS buffer at pH 7.0, 37° C. Serial dilutions were made of the inhibitors to a final concentration of 0.2μg/μL to 15μg/μL in each assay solution. The strain was grown to mid exponential phase and removed from the media and rediluted in PBS buffer. Inhibition studies were performed by adding each strain to the respective buffer solutions along with DHF-riboside, ferric ammonium citrate and inhibitors. For compound 6 and 7, 10% DMSO solution was used to increase the solubility. The solutions were incubated at 37° C. and the absorbance of the complex formed between released 3′,4′-dihydroxyflavone and iron was determined at 387 nm at time 15 min, 30 min, 45 min, 60 min, 75 min, 90 min, 105 min, 2 hours, 2.5 hours, 3.0. hours, 4.0. hours, 4.5 hours, 5 hours, 20 hours, and 24 hours.

β-ribosidase [2] = assay: β-ribosidase inhibition assay with DHF-riboside substrate, whole cells; format: cell-based, Salmonella sp.35664
Method: as §1, §2
In the case of compound 7, no inhibition is also observed for the 3.8 μg/μL inhibitor concentration. There are only minor differences for the inhibitory properties of the two compounds at the higher concentrations.
as §3

E. faecalis 29212 = assay: antibacterial activity, standard MIC testing procedure; format: cell-based
Method: (§4) It was assayed according to the standard MIC testing procedure for antimicrobials.

E. faecalis 51299 = assay: as above; format: cell-based
Method: as §4

S. aureus 43300 = assay: as above; format: cell-based
Method: as §4

Row | Compound | β-ribosidase inhibition activity (in words) (β-ribosidase [1]; lysate) | threshold value for the inhibitor concentration over which no inhibition is observed (β-ribosidase [1]) [µg/µL] | β-ribosidase inhibition activity (in words) (β-ribosidase [2]; whole cell) | inhibition at 3.8 μg/μL inhibitor concentration (β-ribosidase [2]; whole cells, 3.8 μg/μL) | inhibition at 0.49 µg/mL (E. faecalis 29212; Enterococcus faecalis, 29212, 0.49 μg/ml, read-out: inhibition of bacterial growth) [%] | antibacterial activity (in words) (E. faecalis 29212; initial dilute concentration) | inhibition at 0.49 µg/mL (E. faecalis 51299; Enterococcus faecalis, 51299, 0.49 μg/ml, read-out: inhibition of bacterial growth) [%] | antibacterial activity (in words) (E. faecalis 51299; initial dilute concentration) | inhibition at 0.49 µg/mL (S. aureus 43300; Staphylococcus aureus, 43300, 0.49 μg/ml, read-out: inhibition of bacterial growth) [%] | antibacterial activity (in words) (S. aureus 43300; initial dilute concentration) | concentration at which fifty percent inhibition was observed (β-ribosidase [1]; lysate) [µg/µL] | inhibition of β-ribosidases (β-ribosidase [1]; lysate, 15 μg/μL (67 mM), at 24 hours) | concentration at which fifty percent inhibition was observed (β-ribosidase [2]; whole cell) [µg/µL] | inhibition of β-ribosidases (β-ribosidase [2]; whole cell, 15 μg/μL (67 mM), at 24 hours)
1 | O[C@@H]1[C@H]2CSc3ccccc3N2C[C@@H]1O [Compound 7, 2(R)-3(R),4(S)-dihydroxy-2,3,3a,4-tetrahydro-1H-pyrrolo-[2,1-c][1,4]benzothiazine] | comparable | 0.9 | comparable | no inhibition | – | – | – | – | – | – | – | – | – | –
2 | O[C@H]1[C@@H](O)CN2CCSC[C@@H]12 [Compound 8, 7(S)-8(R),9(S)-dihydroxy-hexahydro-1H-pyrrolo-[1,4]-thiazine] | no significant inhibition | – | no significant inhibition | – | 50 | good inhibition | 50 | good inhibition | 70 | good inhibition | – | – | – | –
3 | O[C@H]1[C@@H](O)CN2c3ccccc3SC[C@@H]12 [Compound 6, 2(S),3(R),4(S)-dihydroxy-2,3,3a,4-tetrahydro-1H-pyrrolo-[2,1-c][1,4]benzothiazine] | – | 0.9 | good inhibitory activity | – | – | – | – | – | – | – | 7.5 | About 70% | 7.5 | About 70%
